In test [1] the target is Scavenger receptor class B member 1 (Mus musculus, UniProt Q61009). Description: mouse SR-BI DiI-HDL uptake blockers – ldlA[mSR-BI] cells, fluorescence, cherry pick, dose response (AID 493194).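 Also: cellular uptake of fluorescent DiI-labeled HDL measured as cell fluorescence.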 The class given is functional, cell-based.
Test [2] can be described thus: A Cell Based Secondary Assay To Explore Cytotoxicity of Compounds that Sensitize Mycobacterium Tuberculosis to Beta-Lactam Antibiotics. The class given is functional.
The target in test [3] is Acyl-homoserine lactone acylase PvdQ (Pseudomonas aeruginosa (strain LESB58), UniProt Q9I194). Description: PvdQ acylase enzyme activity blockers – biochemical, fluorescence, plate reader and imaging, cherry-picks, dose response (AID 493231).
Test [4] is described as follows: A549 cell cytotoxicity, dose response, cytotoxicity control, plate reader, cherry-pick, antagonist series (AID 743412). The class given is functional, cell-based.
Test [5] is described as follows: toxicity toward HepG2 liver cells – cell-based, plate reader, cherry-pick, antagonist series, cytotoxicity control, dose response (AID 743416). The test is classed as functional.
The nature of test [6]: blockers of bursicon-stimulated LGR2 cAMP reporter – cell-based, HEK293, CRE-luciferase reporter, cherry pick, set 2, dose response (AID 743343).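 Also: transfected cells were stimulated with diluted bursicon conditioned medium after compound addition.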 The class given is functional. A general note: A reporter such as luciferase makes a cellular process visible.
Test [7] in a line: blockade of melanocortin 4 receptor signaling – cell-based, plate reader, cherry pick, counter-screen for LGR2 antagonist project, dose response (AID 743444).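 Also: transfected HEK 293 cells stimulated with alpha-MSH peptide; potency of inhibitors of the alpha-MSH evoked signal.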 The test is classed as functional. (In general: Counterscreens check selectivity or assay interference.)
Test [8] in a line: viability loss in HEK293 cells – cell-based, plate reader, cherry-picked samples, cytotoxicity control, dose response (AID 743446). The class given is functional.
For test [9], the target named is T1, Voltage-gated N-type calcium channel alpha-1B subunit/Amyloid beta A4 precursor protein-binding family A member 1 (Homo sapiens, UniProt Q00975+Q02410). The test can be described thus: disruptors of Mint-PDZ/N-type channel peptide interaction – biochemical, HTRF, set 2, SAR follow-up (AID 434980). The test is classed as functional. For orientation: Time-resolved FRET reads energy transfer from a long-lived donor to a nearby acceptor.
T1 sequence (Q00975 whole entry): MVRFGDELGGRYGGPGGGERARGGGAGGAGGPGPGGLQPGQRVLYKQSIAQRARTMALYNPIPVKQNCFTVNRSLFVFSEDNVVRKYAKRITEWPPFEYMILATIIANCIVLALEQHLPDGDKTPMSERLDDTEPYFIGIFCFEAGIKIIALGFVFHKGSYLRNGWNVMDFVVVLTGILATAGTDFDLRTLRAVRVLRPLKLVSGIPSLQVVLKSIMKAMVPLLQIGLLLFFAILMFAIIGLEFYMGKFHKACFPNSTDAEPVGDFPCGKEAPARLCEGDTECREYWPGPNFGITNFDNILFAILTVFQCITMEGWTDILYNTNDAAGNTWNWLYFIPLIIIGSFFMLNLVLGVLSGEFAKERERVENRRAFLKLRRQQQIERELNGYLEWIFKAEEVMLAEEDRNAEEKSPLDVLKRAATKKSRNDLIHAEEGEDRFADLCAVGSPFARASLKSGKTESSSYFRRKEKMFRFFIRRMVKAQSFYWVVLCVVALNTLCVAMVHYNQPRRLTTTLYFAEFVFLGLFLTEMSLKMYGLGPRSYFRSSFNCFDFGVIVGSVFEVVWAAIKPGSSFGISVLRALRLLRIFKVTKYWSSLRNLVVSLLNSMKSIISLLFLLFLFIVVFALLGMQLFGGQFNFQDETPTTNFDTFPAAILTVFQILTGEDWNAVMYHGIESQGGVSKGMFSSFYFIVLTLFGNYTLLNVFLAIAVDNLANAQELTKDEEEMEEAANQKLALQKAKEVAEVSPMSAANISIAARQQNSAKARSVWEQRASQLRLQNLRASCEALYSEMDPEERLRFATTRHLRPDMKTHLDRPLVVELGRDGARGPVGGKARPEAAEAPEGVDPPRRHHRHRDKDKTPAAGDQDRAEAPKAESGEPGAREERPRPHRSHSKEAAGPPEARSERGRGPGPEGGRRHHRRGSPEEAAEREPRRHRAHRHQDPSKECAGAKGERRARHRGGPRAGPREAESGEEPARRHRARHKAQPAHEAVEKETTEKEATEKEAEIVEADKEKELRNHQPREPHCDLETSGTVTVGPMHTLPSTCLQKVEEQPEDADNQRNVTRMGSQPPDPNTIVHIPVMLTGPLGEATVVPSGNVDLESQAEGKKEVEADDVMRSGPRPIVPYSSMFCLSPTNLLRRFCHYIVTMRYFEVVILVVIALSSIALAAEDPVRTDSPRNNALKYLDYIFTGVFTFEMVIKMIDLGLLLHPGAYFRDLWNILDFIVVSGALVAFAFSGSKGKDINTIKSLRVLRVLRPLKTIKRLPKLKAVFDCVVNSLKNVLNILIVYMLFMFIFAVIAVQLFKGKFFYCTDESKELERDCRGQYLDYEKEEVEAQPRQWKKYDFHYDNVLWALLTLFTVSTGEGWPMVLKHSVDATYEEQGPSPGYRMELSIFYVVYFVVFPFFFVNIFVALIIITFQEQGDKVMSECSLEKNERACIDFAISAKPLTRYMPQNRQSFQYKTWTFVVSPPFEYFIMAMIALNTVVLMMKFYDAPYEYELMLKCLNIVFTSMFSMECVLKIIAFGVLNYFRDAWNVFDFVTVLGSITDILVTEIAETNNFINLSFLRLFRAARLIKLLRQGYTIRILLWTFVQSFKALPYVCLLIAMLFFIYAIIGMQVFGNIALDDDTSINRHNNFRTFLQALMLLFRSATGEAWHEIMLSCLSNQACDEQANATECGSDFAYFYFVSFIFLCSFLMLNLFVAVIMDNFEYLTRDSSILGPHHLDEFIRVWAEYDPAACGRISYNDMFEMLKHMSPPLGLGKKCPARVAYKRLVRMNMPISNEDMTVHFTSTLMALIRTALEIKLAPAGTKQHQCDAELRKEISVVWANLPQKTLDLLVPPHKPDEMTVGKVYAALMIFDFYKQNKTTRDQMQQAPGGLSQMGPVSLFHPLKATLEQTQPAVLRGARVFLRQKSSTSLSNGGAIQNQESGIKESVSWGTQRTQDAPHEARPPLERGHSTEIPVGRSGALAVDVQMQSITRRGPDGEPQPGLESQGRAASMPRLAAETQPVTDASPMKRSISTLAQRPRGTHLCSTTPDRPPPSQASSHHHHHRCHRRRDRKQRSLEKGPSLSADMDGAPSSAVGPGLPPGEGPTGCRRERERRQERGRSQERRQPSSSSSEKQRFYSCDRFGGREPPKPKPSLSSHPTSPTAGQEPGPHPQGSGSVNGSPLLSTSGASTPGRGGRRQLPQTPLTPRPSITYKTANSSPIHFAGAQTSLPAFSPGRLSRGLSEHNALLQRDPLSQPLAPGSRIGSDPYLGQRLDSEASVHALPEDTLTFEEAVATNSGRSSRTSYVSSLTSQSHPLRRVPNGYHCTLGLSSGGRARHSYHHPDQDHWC
T1 sequence (Q02410 whole entry): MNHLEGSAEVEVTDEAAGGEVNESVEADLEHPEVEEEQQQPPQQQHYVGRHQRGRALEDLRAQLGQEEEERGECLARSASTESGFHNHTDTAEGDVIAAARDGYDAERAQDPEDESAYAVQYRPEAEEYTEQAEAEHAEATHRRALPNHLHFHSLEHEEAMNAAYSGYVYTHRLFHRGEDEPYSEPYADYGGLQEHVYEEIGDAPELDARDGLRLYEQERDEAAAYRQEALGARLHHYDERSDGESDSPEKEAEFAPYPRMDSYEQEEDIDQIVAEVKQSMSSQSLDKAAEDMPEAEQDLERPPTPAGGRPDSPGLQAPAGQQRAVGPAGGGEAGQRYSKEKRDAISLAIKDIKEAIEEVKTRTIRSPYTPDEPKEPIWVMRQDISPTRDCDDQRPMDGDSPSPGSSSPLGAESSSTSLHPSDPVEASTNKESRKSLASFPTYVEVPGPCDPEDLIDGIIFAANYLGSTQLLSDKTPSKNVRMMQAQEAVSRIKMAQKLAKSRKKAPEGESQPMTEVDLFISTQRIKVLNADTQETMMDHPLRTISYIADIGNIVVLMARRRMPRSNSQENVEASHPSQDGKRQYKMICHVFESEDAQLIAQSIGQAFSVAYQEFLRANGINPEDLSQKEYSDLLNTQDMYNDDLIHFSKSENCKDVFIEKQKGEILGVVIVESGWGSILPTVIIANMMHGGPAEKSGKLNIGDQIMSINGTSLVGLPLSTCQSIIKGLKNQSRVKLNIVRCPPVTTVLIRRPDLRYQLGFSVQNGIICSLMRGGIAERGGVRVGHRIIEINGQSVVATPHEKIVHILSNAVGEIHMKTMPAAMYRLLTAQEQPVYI

For test [10], the target named is T1, Voltage-gated N-type calcium channel alpha-1B subunit/Amyloid beta A4 precursor protein-binding family A member 1. The test can be described thus: disruptors of Mint-PDZ/N-type channel peptide interaction – biochemical, HTRF, SAR follow-up (AID 2489). The test is classed as functional.
The nature of test [11]: BJeHLT cell viability loss – BJeHLT cells, dry powder, counter-screen for Ras selective lethality project, dose response (AID 493052). The test is classed as functional, cell-based. Particulars: Homo sapiens.
The nature of test [12]: BJeH cell viability loss – BJeH cells, dry powder, counter-screen for Ras selective lethality project, dose response (AID 493054). The test is classed as functional, cell-based.
Test [13] deals with Wee1-like protein kinase (Homo sapiens, UniProt P30291). The test can be described thus: HeLa cell cycle G2/M accumulation – FACS, mechanism study for Wee1 degradation inhibitor project, late-stage follow-up, panel member Wee1 Degradation (AID 2088).
In test [14] the target is G2/mitotic-specific cyclin-B1 (Homo sapiens, UniProt P14635). The test can be described thus: HeLa cell cycle G2/M accumulation – FACS, mechanism study for Wee1 degradation inhibitor project, late-stage follow-up, panel member Cyclin B Degradation (AID 2088).
Chain of G2/mitotic-specific cyclin-B1 (P14635 whole entry): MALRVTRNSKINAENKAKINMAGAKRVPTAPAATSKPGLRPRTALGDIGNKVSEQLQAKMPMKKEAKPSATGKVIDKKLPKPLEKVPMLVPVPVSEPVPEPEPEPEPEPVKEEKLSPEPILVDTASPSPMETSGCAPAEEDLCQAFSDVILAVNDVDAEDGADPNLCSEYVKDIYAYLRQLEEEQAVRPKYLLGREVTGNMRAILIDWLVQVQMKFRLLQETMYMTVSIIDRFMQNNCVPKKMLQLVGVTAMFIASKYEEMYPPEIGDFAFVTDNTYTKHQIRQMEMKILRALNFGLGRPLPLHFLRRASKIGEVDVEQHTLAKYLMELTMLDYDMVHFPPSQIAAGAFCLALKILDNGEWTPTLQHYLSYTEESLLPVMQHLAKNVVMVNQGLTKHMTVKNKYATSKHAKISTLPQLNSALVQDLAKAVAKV
Test [15] has as its target Lysosomal acid glucosylceramidase (Homo sapiens, UniProt P04062). The test can be described thus: Dose response cell-based high throughput screening assay to identify enhancers of beta-glucosidase activity. [Related pubchem assays: 784 ]. The test is classed as functional.
Test [16] deals with Mitogen-activated protein kinase 10 (Homo sapiens, UniProt P53779). The test can be described thus: Dose response biochemical screening assay for inhibitors of c-Jun N-Terminal Kinase 3 (JNK3). [Related pubchem assays: 746 ].
Chain of Mitogen-activated protein kinase 10 (P53779 whole entry): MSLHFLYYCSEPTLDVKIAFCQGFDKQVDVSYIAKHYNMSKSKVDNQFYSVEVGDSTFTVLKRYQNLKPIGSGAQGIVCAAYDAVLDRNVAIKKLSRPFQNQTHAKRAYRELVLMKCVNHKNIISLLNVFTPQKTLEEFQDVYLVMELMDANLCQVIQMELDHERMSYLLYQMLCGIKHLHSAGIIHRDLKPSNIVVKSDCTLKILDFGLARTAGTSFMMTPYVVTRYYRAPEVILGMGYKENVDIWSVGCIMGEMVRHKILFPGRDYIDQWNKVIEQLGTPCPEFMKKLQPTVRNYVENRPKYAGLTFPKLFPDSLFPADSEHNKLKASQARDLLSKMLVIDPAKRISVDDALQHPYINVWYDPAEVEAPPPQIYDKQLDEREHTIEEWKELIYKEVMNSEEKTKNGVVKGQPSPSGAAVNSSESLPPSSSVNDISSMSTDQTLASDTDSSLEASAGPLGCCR
The nature of test [17]: mRNA 3' processing disruption, beta-gal signal increase – luminescence, S. cerevisiae SKY197-pL101, dose response (AID 2525). The test is classed as functional, cell-based.

Results on 8 compounds are retold here after ChEMBL document CHEMBL1201862, “PubChem BioAssay data set” (2004).

Activity calls are given as the source filed them.

Chain of Lysosomal acid glucosylceramidase (P04062 whole entry): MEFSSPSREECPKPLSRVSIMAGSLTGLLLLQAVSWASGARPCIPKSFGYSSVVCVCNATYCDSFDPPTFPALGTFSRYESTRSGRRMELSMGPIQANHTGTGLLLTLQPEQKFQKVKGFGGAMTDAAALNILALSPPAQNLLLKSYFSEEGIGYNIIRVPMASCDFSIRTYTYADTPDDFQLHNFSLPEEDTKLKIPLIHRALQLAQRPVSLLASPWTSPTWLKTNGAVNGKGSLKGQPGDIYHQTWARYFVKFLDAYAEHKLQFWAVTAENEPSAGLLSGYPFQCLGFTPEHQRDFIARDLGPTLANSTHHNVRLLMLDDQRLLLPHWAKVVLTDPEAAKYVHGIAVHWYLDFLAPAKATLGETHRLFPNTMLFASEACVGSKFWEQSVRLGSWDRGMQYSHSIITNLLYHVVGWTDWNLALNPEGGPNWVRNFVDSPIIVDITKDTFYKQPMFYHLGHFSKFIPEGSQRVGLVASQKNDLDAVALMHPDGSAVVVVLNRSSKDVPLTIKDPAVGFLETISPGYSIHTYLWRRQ

The AC50 is the concentration giving half of the maximal activity seen. Take `Cc1ccc2oc(-c3cccc(NC(=O)c4cc(-n5cnnc5)ccc4Cl)c3)nc2c1`: in test [1], the half-maximal activity concentration (AC50) is 8.18 µM (active).
For orientation: CC50 means the concentration at which the toxic effect on the cells reaches its halfway point. Regarding `COc1ccc2c(c1)c(C(C)=O)c(C)n2-c1ccccc1`, the CC50 in [2] was > 40 µM (active).
With `CCOc1ccc(-c2cn3ccccc3n2)cc1`, the AC50 in [3] was 92.1 µM (active); in test [4], > 52 µM (inactive); in [5], > 52 µM (inactive); in test [6], 5.05 µM (active); in test [7], 4.5 µM (active); in test [8], > 52 µM (inactive).
One may read the IC50 as the concentration at which inhibition is half-maximal. For the compound `COc1cccc(CCNC(=O)c2cc(-c3ccco3)nc3ccccc23)c1`, the IC50 in test [9] and in test [10] was > 56.8 µM (inactive) each time.
Consider `COc1ccc(N(C(=O)[C@@H](C)Cl)C(C(=O)NCCc2ccccc2)c2cccs2)cc1Cl` (some centres not stated), for which the AC50 in test [11] and in test [12] was > 454 µM (inactive) each time.
The EC50 is the concentration that produces a half-maximal response. Turning to `CCc1ccc(NC(=O)CCCOc2cc(=O)n(C)c3ccccc23)cc1`, the EC50 in test [13] and in test [14] was > 49.7 µM (inactive) each time.
For the compound `Cc1ccnc(Nc2nc(-c3c(C)nc4sccn34)cs2)c1`, the EC50 in test [15] is recorded as > 50 µM (not active). Moreover, the IC50 in [16] is > 93.1 µM (not active).
Regarding `CCN1/C(=C/C=C/c2sc3ccccc3[n+]2CC)Sc2ccccc21` [ALAZANINE], the EC50 in [17] is 243 µM (active).
